Assay results taken from patent publication EP4279069A1, “A PHARMACEUTICAL COMPOSITION FOR USE IN PREVENTING AND/OR REDUCING HEPATOTOXICITY INDUCED BY ACETAMINOPHEN” (priority 2022, dated 2023).
Where “and” joins values, the source holds several entries; their conditions need not be identical. Identical values can stand only once.

Assays:
[1] = tested on: acetaminophen-induced acute liver injury; test: Assessment of acute hepatotoxicity: histopathological assessment of liver lesions (H&E, necrosis grade); assay type: in vivo, mice CD-1
Procedure: They received the products intraperitoneally (i.p.).
Histopathological assessment of liver lesions: The histopathological lesions in the liver were evaluated as follows: The collected tissues were processed with standard procedures and embedded in paraffin. The embedded tissues were sectioned into 4 µm thick sections using a microtome. These tissue sections were stained with hematoxylin and eosin (H&E) according to standard techniques and examined by a light microscope.
The severity of necrotic lesions in liver parenchyma was determined. Grade 0: No pathological change Grade 1: Presence of degenerated hepatocytes with only rare foci of necrosis Grade 2: Small area of mild centrilobular necrosis around the central vein Grade 3: Area of mild centrilobular necrosis severer than Grade 2 Grade 4: Centrilobular necrosis severer than Grade 3
(§1) Protocol: 24h after treatments, animals were euthanized. Plasma and liver were sampled.

[2] = tested on: acetaminophen-induced acute liver injury; test: Assessment of acute hepatotoxicity: serum biomarkers of liver injury (ALAT, ASAT), spectrophotometric assay; conditions: for ALAT / ASAT: i.p., 24h after treatment, individual mice
Procedure: 192 male mice CD-1 (Janvier, France) (12 mice per group) with an age of 7-10 weeks were used. They received the products intraperitoneally (i.p.).
Determination of serum biomarkers: Liver injury was evaluated by measuring the serum levels of alanine aminotransferase (ALAT), and aspartate aminotransferase (ASAT) using a spectrophotometric assay method.
as §1
Statistical analysis: Results were expressed as means ± standard error of mean (S.E.M.).

rats = test: Toxicology of acetaminophen and/or nefopam: ALAT and ASAT by UV test according to IFCC recommendations; conditions: for ALAT / ASAT: after 4 weeks, mean, groups 2, 3, 5: P 505 for 4 days then 645 for 24 days and/or N 30 for 4 days then 38.6 for 24 days (mg/kg/day); for transaminase levels: rats, substance alone, after 4 weeks of treatment, statement in text
Procedure: Liver function in rats is measured and the progression of liver damage is monitored to screen for liver disease in invasive and non-invasive manner. Alanine aminotransferase (ALAT) and aspartate aminotransferase (ASAT), two markers of hepatotoxicity was assayed using UV test according to IFCC recommendations.
Control animals (group 1) received the vehicle only (1% Tween 80 in 0.5% Methylcellulose in water).

[3] = cited from earlier work
[4] = median value; cited from earlier work
[5] = Vehicle + 200 mg/kg NAC, 200 mg/kg
[6] = nefopam at doses of 17.65 and 35.29 mg/kg (i.p.) co-administered with acetaminophen, mice
[7] = Vehicle + 1.1 mg/kg nefopam, 1.1 mg/kg
[8] = Vehicle + 2.2 mg/kg nefopam, 2.2 mg/kg
[9] = Vehicle + 4.4 mg/kg nefopam, 4.4 mg/kg

CC(=O)N[C@@H](CS)C(=O)O [NAC, N-acetylcysteine]
Score ([1]; Vehicle + 200 mg/kg NAC, i.p., 24h after treatment, individual mice): 0
ALAT [2, 5]: 41 U/L (2×) and 26 U/L and 27 U/L and 30 U/L and 58 U/L and 31 U/L and 28 U/L and 14 U/L and 29 U/L and 71 U/L and 51 U/L
ASAT [2, 5]: 292 U/L and 101 U/L and 114 U/L and 184 U/L and 320 U/L and 160 U/L and 360 U/L and 107 U/L and 283 U/L and 723 U/L and 170 U/L and 183 U/L

CC(=O)Nc1ccc(O)cc1 [Acetaminophen, N-acetyl-p-aminophenol]
ALAT (rats; female rats): 49 U/L
ASAT (rats; female rats): 101 U/L
ALAT (rats; male rats): 59 U/L
ASAT (rats; male rats): 110 U/L
transaminase levels (rats): increases transaminase levels
transaminase levels (rats; listed as acetaminophen): increase in transaminase levels
half-life ([3]; individuals without liver injury): 2 to 3 h
bioavailability (drug being absorbed) ([3]; taken orally): ~80%
metabolized through the activity of CYPs (primarily CYP2E) to N-acetyl-p-benzoquinoneimine (NAPQI) ([3]; therapeutic doses): ≤ 5%
median effective analgesic dose [4]: 500 mg

CN1CCOC(c2ccccc2)c2ccccc2C1 (stereo not shown) [nefopam, 5-methyl-1-phenyl-1,3,4,6-tetrahydro-2,5-benzoxazo-cine]
ALAT (rats; female rats): 31 U/L
ASAT (rats; female rats): 96 U/L
ALAT (rats; male rats): 35 U/L
ASAT (rats; male rats): 83 U/L
histological score ([1]; mouse, in vivo): 0
histological score [1, 6]: significantly reduced
ALAT [2, 7]: 17 U/L and 29 U/L and 55 U/L (2×) and 51 U/L and 23 U/L and 31 U/L and 45 U/L and 19 U/L and 49 U/L and 27 U/L and 28 U/L
ASAT [2, 7]: 98 U/L and 266 U/L and 180 U/L and 152 U/L and 193 U/L and 181 U/L and 136 U/L and 426 U/L and 110 U/L and 97 U/L and 210 U/L
ALAT [2, 8]: 30 U/L (2×) and 19 U/L (2×) and 52 U/L and 152 U/L and 24 U/L and 27 U/L and 35 U/L and 60 U/L and 57 U/L and 25 U/L
ASAT [2, 8]: 111 U/L and 395 U/L and 59 U/L and 325 U/L and 119 U/L and 118 U/L and 221 U/L and 129 U/L and 269 U/L and 785 U/L and 148 U/L
ALAT [2, 9]: 55 U/L and 25 U/L and 22 U/L and 43 U/L (2×) and 51 U/L and 26 U/L and 28 U/L and 42 U/L and 24 U/L and 71 U/L and 23 U/L
ASAT [2, 9]: 541 U/L and 128 U/L and 111 U/L and 93 U/L and 151 U/L and 79 U/L and 89 U/L and 531 U/L and 71 U/L and 466 U/L
acetaminophen-induced hepatotoxicity ([2]; co-administered with acetaminophen 300 mg/kg i.p., mice): able to abolish acetaminophen-induced hepatotoxicity
ASAT and ALAT plasma concentration ([2]; mouse, in vivo): did not influence
ASAT and ALAT elevations [2, 6]: significantly reduced
